This note sets out measurements from the Biogen ADME set (Fang et al. 2023).

The conditions of the series: for aqueous solubility: pH 6.8.

Values after ≈ are worked out from the molar mass of the structure shown.

One may read the aqueous solubility as how much of the substance goes into solution per volume. A lower aqueous solubility goes with a poorly soluble substance. As for `C[C@@H](CN1CCC2(CC1)C(=O)NCN2c1cccc(F)c1)NC(=O)c1ccc(Br)cc1`, the intrinsic clearance, human liver microsomes was determined as 88.8 mL/min/kg; the intrinsic clearance, rat liver microsomes was found to be 312 mL/min/kg; the aqueous solubility was determined as 3.85 µg/mL (≈ 7.87 µM).

For `CCCCC1=NC2(CCCC2)C(=O)N1Cc1ccc(-c2ccccc2-c2nn[nH]n2)cc1`, the MDR1-MDCK efflux ratio came to 148; the intrinsic clearance, human liver microsomes was determined as 10.7 mL/min/kg; the intrinsic clearance, rat liver microsomes came out at 151 mL/min/kg; the aqueous solubility was 37 µg/mL (≈ 86.3 µM).

As to `CC(/C=C/C(=O)NO)=C\[C@@H](C)C(=O)c1ccc(N(C)C)cc1`, the MDR1-MDCK efflux ratio was 5.29; the intrinsic clearance, human liver microsomes is 23.3 mL/min/kg; the intrinsic clearance, rat liver microsomes turned out to be 152 mL/min/kg; the aqueous solubility came out at 22.1 µg/mL (≈ 73.1 µM).

Consider `CC(C)(C)Nc1cc(NCC2CCOCC2)c2ncc(-c3ccc(C(=O)NC4CC4)cc3)n2n1`, for which the MDR1-MDCK efflux ratio came out at 7.52 and the aqueous solubility was 0.4 µg/mL (≈ 0.865 µM).

Turning to `COC(=O)C1=NOC2(CCN(CCC(C)(C)C)CC2)C1`, the MDR1-MDCK efflux ratio was 0.474; the intrinsic clearance, human liver microsomes was 144 mL/min/kg; the intrinsic clearance, rat liver microsomes was determined as 301 mL/min/kg.

As for `Cc1ccc2occ(CN3C[C@H]4CCCN4C[C@H]3C)c(=O)c2c1`, the MDR1-MDCK efflux ratio came to 0.849; the intrinsic clearance, human liver microsomes was found to be 24 mL/min/kg; the intrinsic clearance, rat liver microsomes came to 956 mL/min/kg.

As for `Cc1cc(C)nc(N2Cc3ccccc3C2=N)n1`, the MDR1-MDCK efflux ratio was 0.807; the intrinsic clearance, human liver microsomes amounted to 24.6 mL/min/kg; the intrinsic clearance, rat liver microsomes turned out to be 1160 mL/min/kg.

In the case of `O=C(NCc1ccc(F)cc1)C1(Cc2ccc(-c3cccnc3)cc2)CCOCC1`, the MDR1-MDCK efflux ratio came to 4.82; the intrinsic clearance, human liver microsomes turned out to be 781 mL/min/kg; the intrinsic clearance, rat liver microsomes stood at 1970 mL/min/kg; the aqueous solubility was 87.5 µg/mL (≈ 216 µM).

On to `CCONC(=O)c1sc(C)nc1C`, for which the MDR1-MDCK efflux ratio is 0.788; the intrinsic clearance, human liver microsomes is no more than 4.74 mL/min/kg; the intrinsic clearance, rat liver microsomes is no more than 10.7 mL/min/kg; the aqueous solubility came to 29 µg/mL (≈ 145 µM).

Take `Cc1cc(C(=O)N2CCOC(C)(C)C2)cc(C)c1OCc1cccnc1`: the MDR1-MDCK efflux ratio is 2.18; the intrinsic clearance, human liver microsomes was 270 mL/min/kg; the intrinsic clearance, rat liver microsomes turned out to be 2180 mL/min/kg; the aqueous solubility came out at 48.9 µg/mL (≈ 138 µM).

Regarding `COc1cccc(/C=C2/N=C(c3ccccc3)NC2=O)c1OC`, the aqueous solubility turned out to be 0.33 µg/mL (≈ 1.07 µM).

Consider `C[C@H]1CN(Cc2c(Cl)cccc2C(F)(F)F)C[C@@]1(CC(=O)O)C(=O)NC1CCN(CC2=CCCCC2)CC1`, for which the MDR1-MDCK efflux ratio came out at 80.8.

The molecule `CCN(Cc1cccs1)C(=O)CN1CCC(n2c(=O)[nH]c3ccccc32)CC1` registered an intrinsic clearance, human liver microsomes of 151 mL/min/kg and an intrinsic clearance, rat liver microsomes of 2800 mL/min/kg.

In the case of `Nc1nc(-c2ccccc2)nc2nc(C3CCCN(CC(=O)N4CCCC4)C3)ccc12` (stereo unspecified), the MDR1-MDCK efflux ratio was 12.5; the intrinsic clearance, human liver microsomes amounted to 5.81 mL/min/kg; the intrinsic clearance, rat liver microsomes was found to be 186 mL/min/kg; the aqueous solubility stood at 68.6 µg/mL (≈ 165 µM).

For `CNC(=O)Cc1noc(-c2ccc3ncccc3c2)n1`, the intrinsic clearance, human liver microsomes was no more than 4.74 mL/min/kg and the intrinsic clearance, rat liver microsomes stood at 21.8 mL/min/kg.

In turn, `O=C(CCc1ccc(-c2ccccc2)o1)N1CCC(n2c(=O)[nH]c3ccccc32)CC1` returned an intrinsic clearance, human liver microsomes of 255 mL/min/kg and an intrinsic clearance, rat liver microsomes of 1760 mL/min/kg.

Molecule `O=C(NCC1(Sc2ccccc2)CC1)c1ccc(=O)[nH]n1` gave an intrinsic clearance, human liver microsomes of 7.88 mL/min/kg and an intrinsic clearance, rat liver microsomes of 567 mL/min/kg.

With `CC(C)C(=O)Nc1ccc2cnn(C(C)C)c2c1`, the MDR1-MDCK efflux ratio worked out at 1.42; the intrinsic clearance, human liver microsomes was 14 mL/min/kg; the intrinsic clearance, rat liver microsomes is 55.8 mL/min/kg; the aqueous solubility amounted to 23 µg/mL (≈ 93.7 µM).

Consider `CSc1ccccc1S(=O)(=O)NC1CCC(CN(C)C)CC1` (stereo unspecified), for which the MDR1-MDCK efflux ratio is 8.91; the intrinsic clearance, human liver microsomes is no more than 4.74 mL/min/kg; the intrinsic clearance, rat liver microsomes amounted to 440 mL/min/kg.

`O=C(NCCc1c[nH]c2cccc(C3(O)CCOCC3)c12)c1cccs1` had an aqueous solubility of 65.5 µg/mL (≈ 177 µM).
